Laboratory results from patent US8778937B2, “Benzimidazole boronic acid derivatives as PI3 kinase inhibitors” (GlaxoSmithKline LLC, priority 2011, dated 2014).

Each molecule was assayed against T1, PI3Kβ (Homo sapiens, UniProt P42338) (assay: HTRF in vitro profiling assay for PI3K inhibition (beta isoform)). Conditions: 200 pM enzyme, 100 uM ATP, 10 uM PIP2, 150 mM NaCl, corrected pIC50, single run or average of two or more runs, read-out: PI3K b pIC50 (converted).
T1 construct: made in house
Type: biochemical
Protocol: Compounds of the present invention were tested according to the following assays and found as inhibitors of PI3 kinases, particularly PI3Kβ. […] The IC50 value can be converted and presented as pIC50 value.
HTRF In Vitro Profiling Assays for PI3K Inhibition
The PI3-Kinase profiling assays were developed to measure the compound-dependent inhibition of the alpha, beta, delta, and gamma isoforms of PI3K in an in vitro catalytic assay. This assay was developed and optimized from a kit produced by Upstate (Millipore catalog #33-017). Briefly, this procedure utilizes a pre-formed HTRF (Homogeneous Time-Resolved Fluorescence energy transfer) complex between four binding partners: 1) biotinylated PIP3, 2) GST tagged pleckstrin homology (PH) domain, 3) Europium labeled anti-GST monoclonal antibody, and 4) Streptavidin-Allophycocyanin (APC). The native PIP3 produced by PI 3-Kinase activity displaces biotin-PIP3 from the PH domain, resulting in the dissociation of the HTRF complex and a decrease in the fluorescence signal. The format of this assay is the same for all 4 isoforms of PI3K; the differences lie in the concentration of enzyme used to achieve the most robust signal. The alpha and delta assays are run at 400 pM enzyme; the beta assay is at 200 pM enzyme and the gamma assay is run at 1 nM enzyme. In addition, the alpha, beta and delta assays are run with 150 mM NaCl while the gamma assay is run in the absence of NaCl. The ATP concentration is 100 uM in the alpha, beta, and delta assays and 15 uM ATP in the gamma assay. All reactions are run at 10 uM PIP2
Compounds were serially diluted (3-fold in 100% DMSO) across a 384-well polypropylene mother plate from column 1 to column 12 and column 13 to column 24, to yield 11 concentrations for each test compound. Columns 6 and 18 contain only DMSO. Once titrations were made, 0.05 μL was transferred to a 384-well low-volume assay plate (Greiner 784076). This assay plate contained three pharmacological controls (known PI3K inhibitors) and 3 assay controls: (1) Enzyme without inhibitor; (2) Buffer minus enzyme, and (3) Buffer minus enzyme plus native PIP3. DMSO was stamped into all wells of columns 6 and 18. PIP3 was added at 40 μM in 1× Reaction buffer (1 μL of 200 μM PIP3) to alternating rows of column 18 (wells 18 B, D, F, H, J, L, N, P). The no-enzyme control reactions were run in wells 18 A, C, E, G, I, K, M, O (0.1 μL of 100% DMSO).
The PI3-Kinase profiling assay was optimized using the HTRF kit provided by Upstate (Millipore). The assay kit contained seven reagents: 1) 4× Reaction Buffer; 2) native PIP2 (substrate); 3) Stop A (EDTA); 4) Stop B (Biotin-PIP3); 5) Detection Mix A (Streptavidin-APC); 6) Detection Mix B (Eu-labeled Anti-GST plus GST-tagged PH-domain); 7) Detection Mix C (KF). In addition, the following items were obtained or purchased: PI3Kinase (prepared by GSK BR&AD), dithiothreitol (Sigma, D-5545), Adenosine-5′-triphosphate (ATP, Teknova cat. # A0220), native PIP3 (1,2-dioctanoyl-sn-glycero-3-[phosphoinositil-3,4,5-triphosphate]tetraammonium salt (Avanti polar lipids, 850186P), DMSO (Sigma, 472301).
PI3Kinase Reaction Buffer was prepared by diluting the stock 1:4 with de-ionized water. Freshly prepared DTT was added at a final concentration of 5 mM on the day of use. Enzyme addition and compound pre-incubation were initiated by the addition of 2.5 μL of PI3K (at twice its final concentration) in 1× reaction buffer to all wells using a Multidrop Combi. Plates were incubated at room temperature for 15 minutes. Reactions were initiated by addition of 2.5 μL of 2× substrate solution (PIP2 and ATP in 1× reaction buffer) using a Multidrop Combi. Plates were incubated at room temperature for one hour. Reactions were quenched by the addition of 2.5 μL of stop solution (Stop A and Stop B pre-mixed at a ratio of 5:1, respectively) to all wells using the Multidrop Combi. […]

T1 sequence (P42338 whole entry, canonical isoform): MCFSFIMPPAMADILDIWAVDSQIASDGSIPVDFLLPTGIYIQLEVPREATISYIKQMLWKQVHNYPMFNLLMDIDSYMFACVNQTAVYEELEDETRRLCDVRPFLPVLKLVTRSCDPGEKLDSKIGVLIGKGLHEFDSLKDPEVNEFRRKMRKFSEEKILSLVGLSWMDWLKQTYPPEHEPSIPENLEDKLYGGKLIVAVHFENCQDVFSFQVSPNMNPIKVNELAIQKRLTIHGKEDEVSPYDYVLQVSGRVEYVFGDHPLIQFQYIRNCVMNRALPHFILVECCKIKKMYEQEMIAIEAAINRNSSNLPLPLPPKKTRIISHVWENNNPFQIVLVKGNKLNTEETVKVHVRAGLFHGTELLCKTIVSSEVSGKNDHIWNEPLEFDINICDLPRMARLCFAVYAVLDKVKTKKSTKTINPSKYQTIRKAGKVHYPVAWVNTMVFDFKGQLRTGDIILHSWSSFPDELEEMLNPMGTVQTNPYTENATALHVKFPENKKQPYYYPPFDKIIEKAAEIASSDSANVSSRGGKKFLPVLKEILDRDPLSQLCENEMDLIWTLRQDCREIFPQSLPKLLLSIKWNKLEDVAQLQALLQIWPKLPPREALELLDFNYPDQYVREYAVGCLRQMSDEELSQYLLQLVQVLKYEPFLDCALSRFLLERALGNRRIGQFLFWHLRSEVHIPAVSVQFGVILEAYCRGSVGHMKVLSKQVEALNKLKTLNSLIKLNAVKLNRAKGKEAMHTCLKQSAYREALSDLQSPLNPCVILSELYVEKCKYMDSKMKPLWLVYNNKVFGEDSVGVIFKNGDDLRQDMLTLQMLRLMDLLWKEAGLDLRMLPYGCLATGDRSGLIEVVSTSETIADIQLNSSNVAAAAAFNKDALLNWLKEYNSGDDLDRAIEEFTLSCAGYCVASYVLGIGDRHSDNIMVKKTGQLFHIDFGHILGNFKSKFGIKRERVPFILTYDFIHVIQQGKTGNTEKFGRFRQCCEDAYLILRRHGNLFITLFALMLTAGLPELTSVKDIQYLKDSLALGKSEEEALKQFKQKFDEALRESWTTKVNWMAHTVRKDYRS
T1 sequence (P27986 whole entry partner, canonical isoform): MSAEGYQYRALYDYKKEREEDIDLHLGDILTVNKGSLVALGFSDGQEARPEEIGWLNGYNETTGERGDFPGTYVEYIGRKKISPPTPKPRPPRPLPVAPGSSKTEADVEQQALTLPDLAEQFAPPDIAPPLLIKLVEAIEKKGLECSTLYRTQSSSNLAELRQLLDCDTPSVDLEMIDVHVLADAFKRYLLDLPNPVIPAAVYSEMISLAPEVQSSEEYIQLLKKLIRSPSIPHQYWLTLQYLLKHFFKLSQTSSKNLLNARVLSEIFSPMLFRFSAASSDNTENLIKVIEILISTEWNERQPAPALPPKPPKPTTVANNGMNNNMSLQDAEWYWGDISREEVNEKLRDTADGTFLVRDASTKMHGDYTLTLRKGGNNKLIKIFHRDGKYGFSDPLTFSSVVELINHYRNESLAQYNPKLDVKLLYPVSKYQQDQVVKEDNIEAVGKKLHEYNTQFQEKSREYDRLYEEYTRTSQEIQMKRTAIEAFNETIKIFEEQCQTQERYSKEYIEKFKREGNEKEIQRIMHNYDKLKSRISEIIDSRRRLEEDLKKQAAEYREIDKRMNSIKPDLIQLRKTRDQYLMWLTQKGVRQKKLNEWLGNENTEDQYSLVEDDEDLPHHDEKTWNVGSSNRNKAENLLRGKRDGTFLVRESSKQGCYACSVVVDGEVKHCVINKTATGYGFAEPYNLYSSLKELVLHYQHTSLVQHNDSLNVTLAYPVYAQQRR

In order of falling IC50:
1. Cc1cccc(Cn2c(C)nc3c(B(O)O)cc(N4CCOCC4)cc32)c1 [Example 10, (2-methyl-1-(3-methylbenzyl)-6-morpholino-1H-benzo[d]imidazol-4-yl)boronic acid]  63.1 nM
2. Cc1nc2c(B(O)O)cc(N3CCOCC3)cc2n1Cc1cccc(Cl)c1 [Example 13, (1-(3-chlorobenzyl)-2-methyl-6-morpholino-1H-benzo[d]imidazol-4-yl)boronic acid]  63.1 nM
3. Cc1nc2c(B(O)O)cc(N3CCOCC3)cc2n1Cc1ccccc1Cl [Example 12, (1-(2-chlorobenzyl)-2-methyl-6-morpholino-1H-benzo[d]imidazol-4-yl)boronic acid]  39.8 nM
4. Cc1ccccc1Cn1c(C)nc2c(B(O)O)cc(N3CCOCC3)cc21 [Example 11, (2-methyl-1-(2-methylbenzyl)-6-morpholino-1H-benzo[d]imidazol-4-yl)boronic acid]  10 nM
5. Cc1c(Cn2c(C(C)C)nc3c(B(O)O)cc(N4CCOCC4)cc32)cccc1C(F)(F)F [Example 22, (2-isopropyl-1-(2-methyl-3-(trifluoromethyl)benzyl)-6-morpholino-1H-benzo[d]imidazol-4-yl)boronic acid]  3.16 nM
6. Cc1c(Cn2cnc3c(B(O)O)cc(N4CCOCC4)cc32)cccc1C(F)(F)F [Example 14, (1-(2-methyl-3-(trifluoromethyl)benzyl)-6-morpholino-1H-benzo[d]imidazol-4-yl)boronic acid]  1.58 nM
7. Cc1nc2c(B(O)O)cc(N3CCOCC3)cc2n1Cc1cccc2ccsc12 [Example 9]  1.26 nM
8. Cc1c(Cn2c(C3CC3)nc3c(B(O)O)cc(N4CCOCC4)cc32)cccc1C(F)(F)F [Example 23, (2-cyclopropyl-1-(2-methyl-3-(trifluoromethyl)benzyl)-6-morpholino-1H-benzo[d]imidazol-4-yl)boronic acid]  1.26 nM
9. Cc1c(Cl)cccc1Cn1cnc2c(B(O)O)cc(N3CCOCC3)cc21 [Example 15, (1-(3-chloro-2-methylbenzyl)-6-morpholino-1H-benzo[d]imidazol-4-yl)boronic acid]  1.26 nM
10. Cc1cccc(Cn2c(C)nc3c(B(O)O)cc(N4CCOCC4)cc32)c1C [Example 7, (1-(2,3-dimethylbenzyl)-2-methyl-6-morpholino-1H-benzo[d]imidazol-4-yl)boronic acid]  0.501 nM
11. Cc1nc2c(B(O)O)cc(N3CCOCC3)cc2n1Cc1cccc2ccccc12 [Example 6, (2-methyl-6-morpholino-1-(naphthalen-1-ylmethyl)-1H-benzo[d]imidazol-4-yl)boronic acid]  0.501 nM
12. Cc1nc2c(B(O)O)cc(N3CCOCC3)cc2n1Cc1cccc(Cl)c1Cl [Example 8, (1-(2,3-dichlorobenzyl)-2-methyl-6-morpholino-1H-benzo[d]imidazol-4-yl)boronic acid]  0.501 nM
13. Cc1c(Cn2c(C)nc3c(B(O)O)cc(N4CCOCC4)cc32)cccc1C(F)(F)F [Example 4, (2-methyl-1-(2-methyl-3-(trifluoromethyl)benzyl)-6-morpholino-1H-benzo[d]imidazol-4-yl)boronic acid]  0.398 nM
14. Cc1c(Cn2c(CO)nc3c(B(O)O)cc(N4CCOCC4)cc32)cccc1C(F)(F)F [Example 18, (2-(hydroxymethyl)-1-(2-methyl-3-(trifluoromethyl)benzyl)-6-morpholino-1H-benzo[d]imidazol-4-yl)boronic acid]  0.2 nM
15. Cc1c(Cl)cccc1Cn1c(C)nc2c(B(O)O)cc(N3CCOCC3)cc21 [Example 5, (1-(3-chloro-2-methylbenzyl)-2-methyl-6-morpholino-1H-benzo[d]imidazol-4-yl)boronic acid]  0.2 nM
16. Cc1c(Cn2c(C(F)F)nc3c(B(O)O)cc(N4CCOCC4)cc32)cccc1C(F)(F)F [Example 20, (2-(difluoromethyl)-1-(2-methyl-3-(trifluoromethyl)benzyl)-6-morpholino-1H-benzo[d]imidazol-4-yl)boronic acid]  0.126 nM
17. Cc1c(Cl)cccc1Cn1c(C(F)(F)F)nc2c(B(O)O)cc(N3CCOCC3)cc21 [Example 21, (1-(3-chloro-2-methylbenzyl)-6-morpholino-2-(trifluoromethyl)-1H-benzo[d]imidazol-4-yl)boronic acid]  0.0794 nM
18. Cc1c(Cl)cccc1Cn1c(C(F)F)nc2c(B(O)O)cc(N3CCOCC3)cc21 [Example 19, (1-(3-chloro-2-methylbenzyl)-2-(difluoromethyl)-6-morpholino-1H-benzo[d]imidazol-4-yl)boronic acid]  0.0794 nM
19. Cc1c(Cl)cccc1Cn1c(CF)nc2c(B(O)O)cc(N3CCOCC3)cc21 [Example 17, (1-(3-chloro-2-methylbenzyl)-2-(fluoromethyl)-6-morpholino-1H-benzo[d]imidazol-4-yl)boronic acid]  0.0631 nM
20. Cc1c(Cn2c(CF)nc3c(B(O)O)cc(N4CCOCC4)cc32)cccc1C(F)(F)F [Example 16, (2-(fluoromethyl)-1-(2-methyl-3-(trifluoromethyl)benzyl)-6-morpholino-1H-benzo[d]imidazol-4-yl)boronic acid]  0.0631 nM
